{"source": "patent US12122770B1", "about": "“2-(benzo[d]oxazol-2-yl)-n'-(nicotinoyloxy)acetimidamide as an antimicrobial compound” (KING FAISAL UNIVERSITY, priority 2023, dated 2024)", "key": {"Pseudomonas aeruginosa": {"system": "Pseudomonas aeruginosa", "assay": "Agar plate disc-diffusion, antibacterial activity (inhibition zone)", "format": "cell-based", "conditions": "Gram negative, DMSO zone subtracted; for inhibition zone, Pseudomonas aeruginosa, A: A = concentration of comp. = 10,000 μL; for inhibition zone, Pseudomonas aeruginosa, B: B = concentration of comp. = 30,000 μL; for inhibition zone, Pseudomonas aeruginosa, C: C = concentration of comp. = 50,000 μL", "protocol": "(§1) The agar plate disc-diffusion method was applied. […] The discs were then placed onto the surface of agar plates (nutrient agar for bacteria and Sabouraud's dextrose agar for fungi) seeded with the test organism. Each plate contained 15 mL of the agar medium, previously seeded with 0.2 mL of the broth culture of each organism pregrown for 18 hours. The plates were incubated at 37° C. for 48 hours, and 72 hours for fungi. The inhibition zones was measured in mm. Discs impregnated with DMSO were used as a control, and its inhibition zone was subtracted from the tested compound actual inhibition zone."}, "Escherichia coli": {"system": "Escherichia coli", "assay": "Agar plate disc-diffusion, antibacterial activity (inhibition zone)", "format": "cell-based", "conditions": "Gram negative, DMSO zone subtracted; for inhibition zone, Escherichia coli, A: A = concentration of comp. = 10,000 μL; for inhibition zone, Escherichia coli, B: B = concentration of comp. = 30,000 μL; for inhibition zone, Escherichia coli, C: C = concentration of comp. = 50,000 μL", "protocol": "as §1"}, "Bacillus Cereus": {"system": "Bacillus Cereus", "assay": "Agar plate disc-diffusion, antibacterial activity (inhibition zone)", "format": "cell-based", "conditions": "Gram positive, DMSO zone subtracted; for inhibition zone, Bacillus Cereus, A: A = concentration of comp. = 10,000 μL; for inhibition zone, Bacillus Cereus, B: B = concentration of comp. = 30,000 μL; for inhibition zone, Bacillus Cereus, C: C = concentration of comp. = 50,000 μL", "protocol": "as §1"}, "Staphylococcus aureus": {"system": "Staphylococcus aureus", "assay": "Agar plate disc-diffusion, antibacterial activity (inhibition zone)", "format": "cell-based", "conditions": "Gram positive, DMSO zone subtracted; for inhibition zone, Staphylococcus aureus, A: A = concentration of comp. = 10,000 μL; for inhibition zone, Staphylococcus aureus, B: B = concentration of comp. = 30,000 μL; for inhibition zone, Staphylococcus aureus, C: C = concentration of comp. = 50,000 μL", "protocol": "as §1"}, "Aspergillus flavus": {"system": "Aspergillus flavus", "assay": "Agar plate disc-diffusion, antifungal activity (inhibition zone)", "format": "cell-based", "conditions": "fungal, 72 hours, DMSO zone subtracted; for inhibition zone, Aspergillus flavus, A: A = concentration of comp. = 10,000 μL; for inhibition zone, Aspergillus flavus, B: B = concentration of comp. = 30,000 μL; for inhibition zone, Aspergillus flavus, C: C = concentration of comp. = 50,000 μL", "protocol": "as §1"}, "[1]": {"system": "Chrysosporium keratinophilum", "assay": "Agar plate disc-diffusion, antifungal activity (inhibition zone)", "format": "cell-based", "conditions": "fungal, 72 hours, DMSO zone subtracted; for inhibition zone, Chrysosporium keratinophilum, A: A = concentration of comp. = 10,000 μL; for inhibition zone, Chrysosporium keratinophilum, B: B = concentration of comp. = 30,000 μL; for inhibition zone, Chrysosporium keratinophilum, C: C = concentration of comp. = 50,000 μL", "protocol": "as §1"}}, "data": [{"smiles": "O=C(O)c1cn(C2CC2)c2cc(N3CCNCC3)c(F)cc2c1=O", "note": "[Cip., ciprofloxacin, reference compound]", "values": [{"measurement": "inhibition zone, Pseudomonas aeruginosa, A", "setting": "Pseudomonas aeruginosa", "result": 29, "unit": "mm"}, {"measurement": "inhibition zone, Pseudomonas aeruginosa, B", "setting": "Pseudomonas aeruginosa", "result": 30, "unit": "mm"}, {"measurement": "inhibition zone, Pseudomonas aeruginosa, C", "setting": "Pseudomonas aeruginosa", "result": 53, "unit": "mm"}, {"measurement": "inhibition zone, Escherichia coli, A", "setting": "Escherichia coli", "result": 30, "unit": "mm"}, {"measurement": "inhibition zone, Escherichia coli, B", "setting": "Escherichia coli", "result": 39, "unit": "mm"}, {"measurement": "inhibition zone, Escherichia coli, C", "setting": "Escherichia coli", "result": 60, "unit": "mm"}, {"measurement": "inhibition zone, Bacillus Cereus, A", "setting": "Bacillus Cereus", "result": 29, "unit": "mm"}, {"measurement": "inhibition zone, Bacillus Cereus, B", "setting": "Bacillus Cereus", "result": 31, "unit": "mm"}, {"measurement": "inhibition zone, Bacillus Cereus, C", "setting": "Bacillus Cereus", "result": 42, "unit": "mm"}, {"measurement": "inhibition zone, Staphylococcus aureus, A", "setting": "Staphylococcus aureus", "result": 43, "unit": "mm"}, {"measurement": "inhibition zone, Staphylococcus aureus, B", "setting": "Staphylococcus aureus", "result": 44, "unit": "mm"}, {"measurement": "inhibition zone, Staphylococcus aureus, C", "setting": "Staphylococcus aureus", "result": 53, "unit": "mm"}, {"measurement": "inhibition zone, Aspergillus flavus, A", "setting": "Aspergillus flavus", "result": 28, "unit": "mm"}, {"measurement": "inhibition zone, Aspergillus flavus, B", "setting": "Aspergillus flavus", "result": 31, "unit": "mm"}, {"measurement": "inhibition zone, Aspergillus flavus, C", "setting": "Aspergillus flavus", "result": 43, "unit": "mm"}, {"measurement": "inhibition zone, Chrysosporium keratinophilum, A", "setting": "[1]", "result": 30, "unit": "mm"}, {"measurement": "inhibition zone, Chrysosporium keratinophilum, B", "setting": "[1]", "result": 33, "unit": "mm"}, {"measurement": "inhibition zone, Chrysosporium keratinophilum, C", "setting": "[1]", "result": 55, "unit": "mm"}]}, {"smiles": "N/C(Cc1nc2ccccc2o1)=N\\OC(=O)c1cccnc1", "note": "[compound 3, 2-(benzo[d]oxazol-2-yl)-N′-(nicotinoyloxy)acetimidamide]", "values": [{"measurement": "inhibition zone, Pseudomonas aeruginosa, A", "setting": "Pseudomonas aeruginosa", "result": 23, "unit": "mm"}, {"measurement": "inhibition zone, Pseudomonas aeruginosa, B", "setting": "Pseudomonas aeruginosa", "result": 25, "unit": "mm"}, {"measurement": "inhibition zone, Pseudomonas aeruginosa, C", "setting": "Pseudomonas aeruginosa", "result": 40, "unit": "mm"}, {"measurement": "inhibition zone, Escherichia coli, A", "setting": "Escherichia coli", "result": 26, "unit": "mm"}, {"measurement": "inhibition zone, Escherichia coli, B", "setting": "Escherichia coli", "result": 33, "unit": "mm"}, {"measurement": "inhibition zone, Escherichia coli, C", "setting": "Escherichia coli", "result": 47, "unit": "mm"}, {"measurement": "inhibition zone, Bacillus Cereus, A", "setting": "Bacillus Cereus", "result": 26, "unit": "mm"}, {"measurement": "inhibition zone, Bacillus Cereus, B", "setting": "Bacillus Cereus", "result": 29, "unit": "mm"}, {"measurement": "inhibition zone, Bacillus Cereus, C", "setting": "Bacillus Cereus", "result": 37, "unit": "mm"}, {"measurement": "inhibition zone, Staphylococcus aureus, A", "setting": "Staphylococcus aureus", "result": 28, "unit": "mm"}, {"measurement": "inhibition zone, Staphylococcus aureus, B", "setting": "Staphylococcus aureus", "result": 31, "unit": "mm"}, {"measurement": "inhibition zone, Staphylococcus aureus, C", "setting": "Staphylococcus aureus", "result": 40, "unit": "mm"}, {"measurement": "melting point", "result": "155 to 156", "unit": "°C"}, {"measurement": "inhibition zone, Aspergillus flavus, A", "setting": "Aspergillus flavus", "result": 21, "unit": "mm"}, {"measurement": "inhibition zone, Aspergillus flavus, B", "setting": "Aspergillus flavus", "result": 24, "unit": "mm"}, {"measurement": "inhibition zone, Aspergillus flavus, C", "setting": "Aspergillus flavus", "result": 32, "unit": "mm"}, {"measurement": "inhibition zone, Chrysosporium keratinophilum, A", "setting": "[1]", "result": 26, "unit": "mm"}, {"measurement": "inhibition zone, Chrysosporium keratinophilum, B", "setting": "[1]", "result": 29, "unit": "mm"}, {"measurement": "inhibition zone, Chrysosporium keratinophilum, C", "setting": "[1]", "result": 48, "unit": "mm"}]}]}
